Results as given in ChEMBL document CHEMBL1201862, “PubChem BioAssay data set” (2004).
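Following 48 hours of exposure in 96-well plates, responses at five concentrations were used to interpolate endpoints linearly. GI50 is the concentration that inhibits growth by half.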 Activity calls are given as the source filed them. Rule as the data show it: active = GI50 up to about 1.1 µM and inactive = higher.

Legend:
Experiment in all cases: NCI tumour cell line growth inhibition, 48 h
UO-31 = system: UO-31
MDA-N = system: MDA-N
RXF 393 = system: RXF 393
PC-3 = system: PC-3
Malme-3M = system: Malme-3M
DU-145 = system: DU-145
HOP-62 = system: HOP-62
HT-29 = system: HT-29
TK-10 = system: TK-10
HCT-15 = system: HCT-15
M14 = system: M14
OVCAR-8 = system: OVCAR-8
IGROV-1 = system: IGROV-1
HCC 2998 = system: HCC 2998
OVCAR-4 = system: OVCAR-4
A498 = system: A498
SF-295 = system: SF-295
MOLT-4 = system: MOLT-4
BT-549 = system: BT-549

| Compound | GI50 (UO-31) | GI50 (MDA-N) | GI50 (RXF 393) | GI50 (PC-3) | GI50 (Malme-3M) | GI50 (DU-145) | GI50 (HOP-62) | GI50 (HT-29) | GI50 (TK-10) | GI50 (HCT-15) | GI50 (M14) | GI50 (OVCAR-8) | GI50 (IGROV-1) | GI50 (HCC 2998) | GI50 (OVCAR-4) | GI50 (A498) | GI50 (SF-295) | GI50 (MOLT-4) | GI50 (BT-549) |
| --- | --- | --- | --- | --- | --- | --- | --- | --- | --- | --- | --- | --- | --- | --- | --- | --- | --- | --- | --- |
| CC(=O)c1ccc2c(c1)CC1(C2)Cc2cc3c(cc2C1)C(=O)CC3 (centres undefined) | 9.53 µM (inactive) | 0.207 µM (active) | 2.28 µM (inactive) | 3.13 µM (inactive) | 1.35 µM (inactive) | 1.4 µM (inactive) | 2.67 µM (inactive) | 1.07 µM (active) | 9.35 µM (inactive) | 1.08 µM | 2 µM (inactive) | 3.49 µM (inactive) | 2.67 µM (inactive) | 0.91 µM (active) | 2.55 µM (inactive) | 0.401 µM (active) | 0.594 µM (active) |  |  |
| CCCNC(=S)N/N=C1\C(=O)Nc2ccccc21 | > 100 µM (inactive) | > 100 µM (inactive) | > 100 µM (inactive) | > 100 µM (inactive) | > 100 µM (inactive) | > 100 µM (inactive) | > 100 µM (inactive) | > 100 µM (inactive) | > 100 µM (inactive) | > 100 µM | > 100 µM (inactive) | > 100 µM (inactive) | > 100 µM (inactive) | > 100 µM (inactive) | > 100 µM (inactive) | > 100 µM (inactive) | > 100 µM (inactive) | > 100 µM (inactive) |  |
| N#C/C(=C\c1ccc(CP(=O)(O)O)cc1)C(N)=O | > 100 µM (inactive) |  |  |  | > 100 µM (inactive) |  | > 100 µM (inactive) | > 100 µM (inactive) | > 100 µM (inactive) | > 100 µM | > 100 µM (inactive) | > 100 µM (inactive) | > 100 µM (inactive) | > 100 µM (inactive) | > 100 µM (inactive) | > 100 µM (inactive) | > 100 µM (inactive) | > 100 µM (inactive) |  |
| O=c1ccn([C@@H]2C[C@H](CO)C[S+]([O-])C2)c(=O)[nH]1 (some centres undefined) | > 100 µM (inactive) |  |  |  | > 100 µM (inactive) |  | > 100 µM (inactive) | > 100 µM (inactive) | > 100 µM (inactive) | > 100 µM | > 100 µM (inactive) | > 100 µM (inactive) | > 100 µM (inactive) | > 100 µM (inactive) | > 100 µM (inactive) | > 100 µM (inactive) | > 100 µM (inactive) | > 100 µM (inactive) |  |
| COc1cc([C@@H]2c3cc4c(cc3C(N)C3COC(=O)[C@@H]32)OCO4)cc(OC)c1O (some centres undefined) | 0.695 µM (active) |  | 0.049 µM (active) |  |  |  | 2.88 µM (inactive) | 0.232 µM (active) | 0.401 µM (active) | 0.324 µM | 0.269 µM (active) | 0.308 µM (active) | 0.515 µM (active) | 0.249 µM (active) | 0.71 µM (active) |  | 0.0624 µM (active) | 0.266 µM (active) |  |
| COc1cc(OC)c(NC2=NCCO2)cc1Cl | 91.6 µM (inactive) | 17.1 µM (inactive) | 46.1 µM (inactive) | 24.3 µM (inactive) | 68.7 µM (inactive) | 38.2 µM (inactive) | 49.7 µM (inactive) | 23.5 µM (inactive) | 60.3 µM (inactive) | 33.9 µM | 31.3 µM (inactive) | 83 µM (inactive) | 38 µM (inactive) | 23.8 µM (inactive) | > 100 µM (inactive) | 32.7 µM (inactive) | 82.8 µM (inactive) | 44.2 µM (inactive) |  |
| Nc1nnc2n1C(=O)C(C1(C3=Nc4nnc(N)n4C3=O)Cc3ccccc3C1=O)=N2 | > 100 µM (inactive) | > 100 µM (inactive) | > 100 µM (inactive) | > 100 µM (inactive) | > 100 µM (inactive) | > 100 µM (inactive) | > 100 µM (inactive) | > 100 µM (inactive) | > 100 µM (inactive) | > 100 µM | > 100 µM (inactive) | > 100 µM (inactive) |  | > 100 µM (inactive) |  | 0.0205 µM (active) | > 100 µM (inactive) | > 100 µM (inactive) |  |
| Nc1nc2c(ncn2Cc2ccccc2CO)c(=O)[nH]1 | > 100 µM (inactive) |  |  | > 100 µM (inactive) | > 100 µM (inactive) | > 100 µM (inactive) | > 100 µM (inactive) | > 100 µM (inactive) | > 100 µM (inactive) | > 100 µM | > 100 µM (inactive) | > 100 µM (inactive) | > 100 µM (inactive) | > 100 µM (inactive) | > 100 µM (inactive) | > 100 µM (inactive) | > 100 µM (inactive) | > 100 µM (inactive) | > 100 µM (inactive) |
| N#CCc1nc(-c2cc3c(ccc4ccccc43)oc2=O)cs1 | 38.9 µM (inactive) |  | 23.4 µM (inactive) | 65.5 µM (inactive) | > 100 µM (inactive) | 23.9 µM (inactive) | 16.7 µM (inactive) | 73.1 µM (inactive) | 18.1 µM (inactive) | 69.3 µM | 99.1 µM (inactive) | 28.5 µM (inactive) | 15.2 µM (inactive) | 69.3 µM (inactive) | 24.3 µM (inactive) |  | 26.7 µM (inactive) | > 100 µM (inactive) | 17.1 µM (inactive) |
